This is an account of results in patent publication US20200392158A1, “INHIBITORS OF LEUCINE RICH REPEAT KINASE 2” (GLAXOSMITHKLINE INTELLECTUAL PROPERTY DEVELOPMENT LIMITED, priority 2017, published 2020).

Some results are limits rather than exact numbers.

Assay [1] concerns the target T1, LRRK2 kinase in SH-SY5Y cells over-expressing recombinant full length LRRK2 (Homo sapiens, UniProt Q5S007).
T1 construct: A BacMam virus expressing full length recombinant LRRK2 was purchased from Invitrogen; host or cells: SH-SY5Y human neuroblastoma cells transduced with BacMam LRRK2 virus
Description: Recombinant cellular LRRK2 AlphaScreen assay (LRRK2 Ser935 phosphorylation). Format: cell-based. The settings on record: 60 min. The essentials:
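Read-out is AlphaScreen of LRRK2 pSer935 over total LRRK2 in lysates of SH-SY5Y cells over-expressing full-length LRRK2 via BacMam (24 h transduction). Cells were exposed 60 min at 37 °C to an 11-point 1-in-4 dilution series starting at 10 uM; sigmoidal fit.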

The target of assay [2] is T2, full length G2019 human LRRK2 (Homo sapiens, UniProt Q5S007, R50H).
T2 construct: made in house; host or cells: HEK293 6E cells transduced with BacMam virus (virus generated in Sf9 cells)
T2 sequence (Q5S007 with tags, fused parts or gaps R50H): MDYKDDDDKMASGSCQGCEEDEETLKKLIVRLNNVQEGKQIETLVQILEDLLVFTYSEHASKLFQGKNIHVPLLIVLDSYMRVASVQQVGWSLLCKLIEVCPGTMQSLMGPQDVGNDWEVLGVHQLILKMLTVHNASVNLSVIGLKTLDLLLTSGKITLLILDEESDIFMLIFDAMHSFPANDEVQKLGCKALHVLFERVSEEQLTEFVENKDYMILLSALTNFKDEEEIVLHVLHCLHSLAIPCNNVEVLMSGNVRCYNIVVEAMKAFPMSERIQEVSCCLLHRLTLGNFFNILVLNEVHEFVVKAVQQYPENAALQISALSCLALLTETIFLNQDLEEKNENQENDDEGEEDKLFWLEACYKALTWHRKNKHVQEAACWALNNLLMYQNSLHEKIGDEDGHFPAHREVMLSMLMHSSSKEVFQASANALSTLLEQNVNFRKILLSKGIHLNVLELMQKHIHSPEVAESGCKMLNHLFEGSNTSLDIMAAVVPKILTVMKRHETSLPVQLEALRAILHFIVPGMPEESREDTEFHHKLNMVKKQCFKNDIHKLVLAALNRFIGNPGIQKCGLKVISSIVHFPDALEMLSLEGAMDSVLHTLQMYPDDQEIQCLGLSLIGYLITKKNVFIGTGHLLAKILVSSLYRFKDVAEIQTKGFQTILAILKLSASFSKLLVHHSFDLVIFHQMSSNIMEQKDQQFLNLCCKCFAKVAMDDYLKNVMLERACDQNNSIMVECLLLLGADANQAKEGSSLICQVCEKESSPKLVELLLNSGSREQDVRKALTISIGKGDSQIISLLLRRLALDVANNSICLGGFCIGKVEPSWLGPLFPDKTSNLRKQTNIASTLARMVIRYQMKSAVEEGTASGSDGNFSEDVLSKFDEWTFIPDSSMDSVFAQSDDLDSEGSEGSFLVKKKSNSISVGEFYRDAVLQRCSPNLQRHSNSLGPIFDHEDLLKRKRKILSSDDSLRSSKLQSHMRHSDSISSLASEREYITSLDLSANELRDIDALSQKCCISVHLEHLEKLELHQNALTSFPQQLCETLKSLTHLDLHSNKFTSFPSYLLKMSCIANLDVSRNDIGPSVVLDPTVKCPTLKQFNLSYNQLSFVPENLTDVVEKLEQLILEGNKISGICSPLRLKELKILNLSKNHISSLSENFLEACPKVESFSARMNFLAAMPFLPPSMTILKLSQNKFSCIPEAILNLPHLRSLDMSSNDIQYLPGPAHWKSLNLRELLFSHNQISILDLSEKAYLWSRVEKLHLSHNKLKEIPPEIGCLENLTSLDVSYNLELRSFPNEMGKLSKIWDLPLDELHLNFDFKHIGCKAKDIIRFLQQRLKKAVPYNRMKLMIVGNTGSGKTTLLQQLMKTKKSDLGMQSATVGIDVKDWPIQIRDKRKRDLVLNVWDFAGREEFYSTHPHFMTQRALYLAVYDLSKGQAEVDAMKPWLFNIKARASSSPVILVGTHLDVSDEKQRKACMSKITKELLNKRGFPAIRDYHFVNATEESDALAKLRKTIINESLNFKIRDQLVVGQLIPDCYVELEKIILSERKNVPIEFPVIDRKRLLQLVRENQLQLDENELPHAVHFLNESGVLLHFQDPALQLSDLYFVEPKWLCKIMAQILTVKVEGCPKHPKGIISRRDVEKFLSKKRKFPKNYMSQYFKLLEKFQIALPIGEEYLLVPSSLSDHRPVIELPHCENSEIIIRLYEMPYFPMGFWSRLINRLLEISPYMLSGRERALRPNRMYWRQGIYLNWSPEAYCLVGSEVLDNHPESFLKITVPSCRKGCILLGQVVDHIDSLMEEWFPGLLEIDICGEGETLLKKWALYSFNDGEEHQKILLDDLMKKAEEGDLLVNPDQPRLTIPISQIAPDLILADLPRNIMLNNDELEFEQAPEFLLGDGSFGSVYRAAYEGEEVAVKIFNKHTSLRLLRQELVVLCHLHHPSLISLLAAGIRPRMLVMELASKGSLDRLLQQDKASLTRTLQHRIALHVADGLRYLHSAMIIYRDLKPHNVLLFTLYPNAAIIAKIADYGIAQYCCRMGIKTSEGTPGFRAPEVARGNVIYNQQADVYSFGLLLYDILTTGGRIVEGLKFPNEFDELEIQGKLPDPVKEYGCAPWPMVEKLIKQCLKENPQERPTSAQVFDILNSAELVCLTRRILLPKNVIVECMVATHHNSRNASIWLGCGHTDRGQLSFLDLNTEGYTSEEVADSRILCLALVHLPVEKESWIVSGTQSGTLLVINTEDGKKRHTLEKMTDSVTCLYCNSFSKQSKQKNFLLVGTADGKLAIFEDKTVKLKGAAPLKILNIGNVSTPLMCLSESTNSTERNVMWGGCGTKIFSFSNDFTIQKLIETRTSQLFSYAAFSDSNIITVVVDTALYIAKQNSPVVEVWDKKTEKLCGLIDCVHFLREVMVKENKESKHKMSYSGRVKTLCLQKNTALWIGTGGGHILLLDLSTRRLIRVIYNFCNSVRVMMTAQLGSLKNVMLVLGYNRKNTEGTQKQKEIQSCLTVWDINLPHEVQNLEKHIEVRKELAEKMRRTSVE
Description: Full length G2019 human LRRK2 inhibition mass spectrometry assay. The assay is classed as biochemical. As to conditions: LRRKtide to phospho-LRRKtide conversion, RapidFire MS, 2 mM ATP. The essentials:
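Inhibition taken as reduced LRRKtide phosphorylation, quantified by RapidFire-coupled triple-quadrupole MS as product/(product+substrate) peak area. Reaction: 2 mM ATP, 25 μM peptide, ~25 nM full-length G2019 Flag-LRRK2, Hepes pH 7.2 buffer, room temperature for 1 h. 11-point 1-in-4 dilutions from 100 μM; logistic fit gives IC50, reported as pIC50.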

T1 sequence (Q5S007 whole entry): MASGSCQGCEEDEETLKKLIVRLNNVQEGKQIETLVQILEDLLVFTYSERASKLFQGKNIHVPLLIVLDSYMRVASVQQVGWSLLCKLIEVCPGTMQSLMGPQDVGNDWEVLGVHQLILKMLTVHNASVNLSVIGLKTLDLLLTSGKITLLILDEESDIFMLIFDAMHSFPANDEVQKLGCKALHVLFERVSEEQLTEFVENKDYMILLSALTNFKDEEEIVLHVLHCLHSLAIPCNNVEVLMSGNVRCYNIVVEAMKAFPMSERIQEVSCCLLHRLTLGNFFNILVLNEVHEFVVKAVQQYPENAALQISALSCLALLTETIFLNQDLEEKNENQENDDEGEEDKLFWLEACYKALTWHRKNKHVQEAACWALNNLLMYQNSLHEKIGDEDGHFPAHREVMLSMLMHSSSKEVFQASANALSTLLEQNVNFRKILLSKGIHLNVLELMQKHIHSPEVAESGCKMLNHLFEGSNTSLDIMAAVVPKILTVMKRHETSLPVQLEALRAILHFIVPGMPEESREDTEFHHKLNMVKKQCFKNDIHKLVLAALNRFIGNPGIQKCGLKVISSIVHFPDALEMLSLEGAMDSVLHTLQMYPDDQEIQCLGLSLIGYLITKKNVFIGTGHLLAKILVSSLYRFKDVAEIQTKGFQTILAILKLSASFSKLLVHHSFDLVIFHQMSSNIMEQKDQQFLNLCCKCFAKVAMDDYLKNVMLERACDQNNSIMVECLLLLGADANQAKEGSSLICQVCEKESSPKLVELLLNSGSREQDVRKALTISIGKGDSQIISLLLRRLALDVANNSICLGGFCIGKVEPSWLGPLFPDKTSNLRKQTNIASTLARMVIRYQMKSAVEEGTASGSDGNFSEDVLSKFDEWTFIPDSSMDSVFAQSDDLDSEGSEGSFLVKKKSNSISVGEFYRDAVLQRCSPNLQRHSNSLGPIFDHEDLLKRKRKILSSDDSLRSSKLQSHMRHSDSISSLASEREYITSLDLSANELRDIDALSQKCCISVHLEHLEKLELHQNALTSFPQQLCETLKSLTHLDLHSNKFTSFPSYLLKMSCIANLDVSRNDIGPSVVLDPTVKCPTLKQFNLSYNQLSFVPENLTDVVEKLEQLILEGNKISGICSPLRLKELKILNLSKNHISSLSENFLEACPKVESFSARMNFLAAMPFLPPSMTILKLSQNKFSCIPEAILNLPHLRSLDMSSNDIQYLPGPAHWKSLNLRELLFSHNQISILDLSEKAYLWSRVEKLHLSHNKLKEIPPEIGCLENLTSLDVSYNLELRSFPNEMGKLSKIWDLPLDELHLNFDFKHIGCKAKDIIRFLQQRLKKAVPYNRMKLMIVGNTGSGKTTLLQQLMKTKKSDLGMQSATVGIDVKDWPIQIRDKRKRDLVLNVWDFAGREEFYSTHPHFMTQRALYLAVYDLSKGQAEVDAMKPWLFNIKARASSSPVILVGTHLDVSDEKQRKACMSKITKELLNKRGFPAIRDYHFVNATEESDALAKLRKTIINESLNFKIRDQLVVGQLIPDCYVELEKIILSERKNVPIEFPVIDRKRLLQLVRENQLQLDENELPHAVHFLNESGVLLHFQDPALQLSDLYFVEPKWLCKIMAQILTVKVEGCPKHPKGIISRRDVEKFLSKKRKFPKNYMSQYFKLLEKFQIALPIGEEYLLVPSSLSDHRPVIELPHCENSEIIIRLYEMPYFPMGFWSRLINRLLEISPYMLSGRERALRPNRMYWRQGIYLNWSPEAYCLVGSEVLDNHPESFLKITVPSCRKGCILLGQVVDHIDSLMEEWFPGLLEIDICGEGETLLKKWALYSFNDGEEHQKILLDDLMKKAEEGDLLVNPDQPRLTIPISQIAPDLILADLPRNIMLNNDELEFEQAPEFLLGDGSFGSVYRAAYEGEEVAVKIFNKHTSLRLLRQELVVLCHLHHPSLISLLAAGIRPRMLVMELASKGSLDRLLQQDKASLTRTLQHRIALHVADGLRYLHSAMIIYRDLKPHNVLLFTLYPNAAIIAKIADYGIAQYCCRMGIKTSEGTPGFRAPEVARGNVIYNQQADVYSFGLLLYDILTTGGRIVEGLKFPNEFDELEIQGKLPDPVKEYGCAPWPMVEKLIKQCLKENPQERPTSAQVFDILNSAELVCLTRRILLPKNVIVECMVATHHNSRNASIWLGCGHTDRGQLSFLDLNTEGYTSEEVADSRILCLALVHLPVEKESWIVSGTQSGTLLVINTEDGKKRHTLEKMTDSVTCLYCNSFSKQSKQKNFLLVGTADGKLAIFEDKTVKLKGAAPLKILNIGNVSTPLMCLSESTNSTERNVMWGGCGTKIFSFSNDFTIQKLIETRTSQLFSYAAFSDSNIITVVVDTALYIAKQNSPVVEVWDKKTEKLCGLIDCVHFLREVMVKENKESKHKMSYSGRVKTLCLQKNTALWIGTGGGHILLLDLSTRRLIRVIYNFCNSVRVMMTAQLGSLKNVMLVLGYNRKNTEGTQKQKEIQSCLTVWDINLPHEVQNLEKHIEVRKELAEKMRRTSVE

With `Cc1c2c(nn1C1CC(N3CC4CC3CO4)C1)OCC[C@@H](C)Nc1nc(ncc1Cl)N2` (stereo in doubt) [E318, (11R)-14-Chloro-4,11-dimethyl-5-{3-[(1R,4R)-2-oxa-5-azabicyclo[2.2.1]heptan-5-yl]cyclobutyl}-8-oxa-2,5,6,12,16,17-hexaazatricyclo[11.3.1.0^3,7]heptadeca-1(16),3,6,13(17),14-pentaene], the concentration for half-maximal inhibition (IC50) in assay [1] and in assay [2] was at most 0.1 µM each time.
For `Cc1c2c(nn1C1CC3(COC3)C1)OCC[C@@H](C)Nc1nc(ncc1Cl)N2` [E301, (11R)-14-Chloro-4,11-dimethyl-5-{2-oxaspiro[3.3]heptan-6-yl}-8-oxa-2,5,6,12,16,17-hexaazatricyclo[11.3.1.0^3,7]heptadeca-1(17),3,6,13,15-pentaene], the IC50 in assay [1] and in assay [2] was at most 0.1 µM throughout.
With `CCOC(=O)C(C)(C)n1nc2c(c1C)Nc1ncc(Cl)c(n1)NCCCO2` [E188], the IC50 in assay [1] and in assay [2] was at most 0.1 µM in each case.
Regarding `Cc1c2c(nn1C1CCOCC1(C)C)OCC[C@@H](C)Nc1nc(ncc1Cl)N2` (stereo partly drawn) [E421, (11R)-14-Chloro-5-(3,3-dimethyloxan-4-yl)-4,11-dimethyl-8-oxa-2,5,6,12,16,17-hexaazatricyclo[11.3.1.0^3,7]heptadeca-1(16),3,6,13(17),14-pentaene], the IC50 in assay [1] and in assay [2] was at most 0.1 µM throughout.
`Cc1c2c(nn1C1CCN(C3COC3)CC1(F)F)OCCCNc1nc(ncc1Cl)N2` (single isomer, unassigned) [E406, 14-Chloro-5-[3,3-difluoro-1-(oxetan-3-yl)piperidin-4-yl]-4-methyl-8-oxa-2,5,6,12,16,17-hexaazatricyclo[11.3.1.0^3,7]heptadeca-1(16),3,6,13(17),14-pentaene]: the concentration for half-maximal inhibition (IC50) in assay [1] and in assay [2] was at most 0.1 µM throughout.
On to `Cc1c2c(nn1C1CCN(C3CCOC3)CC1)OCC[C@@H](C)Nc1nc(ncc1Cl)N2` (stereo partly drawn) [E382, (11R)-14-Chloro-4,11-dimethyl-5-[1-(oxolan-3-yl)piperidin-4-yl]-8-oxa-2,5,6,12,16,17-hexaazatricyclo[11.3.1.0^3,7]heptadeca-1(16),3,6,13(17),14-pentaene], for which the IC50 in assay [1] and in assay [2] was at most 0.1 µM each time.
Regarding `CCOC1CNc2nc(ncc2Cl)Nc2c(nn(C3CCOCC3)c2C)OC1` (single isomer, unassigned) [E287, 14-Chloro-10-ethoxy-4-methyl-5-(oxan-4-yl)-8-oxa-2,5,6,12,16,17-hexaazatricyclo[11.3.1.0^3,7]heptadeca-1(16),3,6,13(17),14-pentaene], the IC50 in assay [1] and in assay [2] was at most 0.1 µM in each case.
Regarding `C[C@@H]1CCOc2nn(C3CN(C4COC4)C3)c(Cl)c2Nc2ncc(Cl)c(n2)N1` [E427, (11R)-4,14-Dichloro-11-methyl-5-[1-(oxetan-3-yl)azetidin-3-yl]-8-oxa-2,5,6,12,16,17-hexaazatricyclo[11.3.1.0^3,7]heptadeca-1(16),3,6,13(17),14-pentaene], the half-inhibitory concentration (IC50) in assay [1] and in assay [2] was at most 0.1 µM throughout.
As for `Cc1c2c(nn1C1CCOCC1)OCC(C)C(C)Nc1nc(ncc1Cl)N2` (single isomer, unassigned) [E32, 14-chloro-4,10,11-trimethyl-5-(oxan-4-yl)-8-oxa-2,5,6,12,16,17-hexaazatricyclo [11.3.1.0^3,7]heptadeca-1(16),3,6,13(17),14-pentaene], the 50% inhibitory concentration (IC50) in assay [1] and in assay [2] was at most 0.1 µM each time.
With `CCc1[nH]nc2c1Nc1ncc(Cl)c(n1)N[C@H](C)CCO2` [E430, (11R)-14-Chloro-4-ethyl-11-methyl-8-oxa-2,5,6,12,16,17-hexaazatricyclo[11.3.1.0^3,7]heptadeca-1(16),3,6,13(17),14-entaene], the IC50 in assay [1] and in assay [2] was at most 0.1 µM in each case.
As to `Cc1c2c(nn1C1CCOCC1)OCCCNc1nc(ncc1Br)N2` [E367, 14-Bromo-4-methyl-5-(oxan-4-yl)-8-oxa-2,5,6,12,16,17-hexaaza tricyclo[11.3.1.0^3,7]heptadeca-1(16),3,6,13(17),14-pentaene], the IC50 in assay [1] and in assay [2] was at most 0.1 µM in each case.
On to `Cc1c2c(nn1C1CCOCC1(F)F)OCCCNc1nc(ncc1Cl)N2` (single isomer, unassigned) [E415], for which the IC50 in assay [1] and in assay [2] was at most 0.1 µM each time.
Consider `Cc1c2c(nn1C1CCCOC1)OCCCNc1cc(ncc1Cl)N2` (stereo not shown) [E379, 14-Chloro-4-methyl-5-(oxan-3-yl)-8-oxa-2,5,6,12,16-pentaazatricyclo[11.3.1.0^3,7] heptadeca-1 (16),3,6,13(17),14-pentaene], for which the half-maximal inhibitory concentration (IC50) in assay [1] and in assay [2] was at most 0.1 µM each time.
With `Cc1c2c(nn1C1CC(N3CCOCC3)C1)OCC[C@@H](C)Nc1nc(ncc1Cl)N2` (stereo partly drawn) [E106, (11R)-14-chloro-4,11-dimethyl-5-[3-(morpholin-4-yl)cyclobutyl]-8-oxa-2,5,6,12,16,17-hexaazatricyclo[11.3.1.0^3,7]heptadeca-1(16),3,6,13(17),14-pentaene], the IC50 in assay [1] and in assay [2] was at most 0.1 µM each time.
Take `Clc1cnc2nc1NCCCOc1n[nH]c(Cl)c1N2` [E396, 4,14-Dichloro-8-oxa-2,5,6,12,16,17 hexaazatricyclo[11.3.1.0^3,7] heptadeca-1(16),3,6,13(17),14-pentaene]: the IC50 in assay [1] and in assay [2] was at most 0.1 µM in each case.
In the case of `Cc1c2c(nn1C1CCC(N3C[C@@H]4C[C@H]3CO4)CC1)OCCC(C)Nc1nc(ncc1Cl)N2` (single isomer, unassigned) [E104], the 50% inhibitory concentration (IC50) in assay [1] and in assay [2] was at most 0.1 µM throughout.
On to `Cc1c2c(nn1C1CCC(O)CC1)OCCCNc1nc(ncc1Cl)N2` (single isomer, unassigned) [E90, 4-{14-chloro-4-methyl-8-oxa-2,5,6,12,16,17-hexaazatricyclo[11.3.1.0^3,7]heptadeca-1(16),3,6,13(17),14-pentaen-5-yl}cyclohexan-1-ol], for which the IC50 in assay [1] and in assay [2] was at most 0.1 µM each time.
As to `Cc1c2c(nn1[C@@H]1CCOC1)OCC[C@@H](C)Nc1nc(ncc1Cl)N2` [E47, (11R)-14-chloro-4,11-dimethyl-5-[(3R)-oxolan-3-yl]-8-oxa-2,5,6,12,16,17-hexaaza tricyclo [11.3.1.0^3,7]heptadeca-1(16),3,6,13(17),14-pentaene], the 50% inhibitory concentration (IC50) in assay [1] and in assay [2] was at most 0.1 µM each time.
`Cc1c2c(nn1C1CCC(C)CC1)OCCC(C)Nc1nc(ncc1Cl)N2` (single isomer, unassigned) [E259, 14-Chloro-4,11-dimethyl-5-(4-methylcyclohexyl)-8-oxa-2,5,6,12,16,17-hexaazatricyclo[11.3.1.0^3,7] heptadeca-1(16),3,6,13(17),14-pentaene]: the IC50 in assay [1] and in assay [2] was at most 0.1 µM in each case.
For `Cc1c2c(nn1C1CCN(C3COC3)CC1F)OCCCNc1nc(ncc1Cl)N2` (single isomer, unassigned) [E61, trans-14-chloro-5-[3-fluoro-1-(oxetan-3-yl)piperidin-4-yl]-4-methyl-8-oxa-2,5,6,12,16,17-hexaazatricyclo[11.3.1.0^3,7]heptadeca-1(16),3,6,13(17),14-pentaene], the half-inhibitory concentration (IC50) in assay [1] and in assay [2] was at most 0.1 µM throughout.
For the compound `Cc1c2c(nn1C1CN(C3COC3)CCC1F)OCC[C@@H](C)Nc1nc(ncc1Cl)N2` (single isomer, unassigned) [E403], the IC50 in assay [1] and in assay [2] was at most 0.1 µM each time.
In the case of `Cc1c2c(nn1C1CC(OC(F)F)C1)OCC[C@@H](C)Nc1nc(ncc1Cl)N2` (stereo partly drawn) [E378, (11R)-14-Chloro-5-[3-(difluoromethoxy)cyclobutyl]-4,11-dimethyl-8-oxa-2,5,6,12,16,17-hexaazatricyclo[11.3.1.0^3,7] heptadeca-1(16),3,6,13(17),14-pentaene], the IC50 in assay [1] and in assay [2] was at most 0.1 µM each time.
With `Cc1c2c(nn1C1CCN(C3COC3)CC1(F)F)OCC[C@@H](C)Nc1nc(ncc1Cl)N2` (stereo partly drawn) [E411, (11R)-14-Chloro-5-[3,3-difluoro-1-(oxetan-3-yl)piperidin-4-yl]-4,11-dimethyl-8-oxa-2,5,6,12,16,17-hexaazatricyclo[11.3.1. 0^3,7]heptadeca-1(16),3,6,13(17),14-pentaene], the IC50 in assay [1] and in assay [2] was at most 0.1 µM each time.
With `Cc1[nH]nc2c1Nc1ncc(C(F)(F)F)c(n1)NCCCO2` [E433, 4-Methyl-14-(trifluoromethyl)-8-oxa-2,5,6,12,16,17-hexaazatricyclo[11.3.1.0^3,7]heptadeca-1(16),3,6,13(17),14-pentaene], the 50% inhibitory concentration (IC50) in assay [1] and in assay [2] was at most 0.1 µM in each case.
For `Cc1c2c(nn1C(C)(C)C)OCC[C@@H](C)Nc1nc(ncc1Cl)N2` [E417, (11R)-5-tert-Butyl-14-chloro-4,11-dimethyl-8-oxa-2,5,6,12,16,17-hexaazatricyclo[11.3.1.0^3,7]heptadeca-1(16),3,6,13(17),14-pentaene], the IC50 in assay [1] and in assay [2] was at most 0.1 µM in each case.
As for `Cc1c2c(nn1CC(F)(F)F)OCCCNc1nc(ncc1Cl)N2` [E266, 14-Chloro-4-methyl-5-(2,2,2-trifluoroethyl)-8-oxa-2,5,6,12,16,17-hexaazatricyclo[11.3.1.0^3,7]heptadeca-1(16),3,6,13(17),14-pentaene], the IC50 in assay [1] and in assay [2] was at most 0.1 µM each time.

By IC50 is commonly meant the concentration that gives 50% inhibition.
